Assay results published in patent US9492471B2, “Methods of treating a disease or disorder associated with Bruton'S Tyrosine Kinase” (Celgene Avilomics Research, Inc., priority 2013, dated 2016).
Like-named read-outs stand apart in the source and are kept apart here.

Key:
Experiment in all cases: HotSpot kinase profiling
Assay type in all cases: biochemical
DRAK1/STK17A = target: T1, DRAK1/STK17A (Homo sapiens, UniProt Q9UEE5)
T1 construct: purchased Reaction Biology Corp
T1 sequence (Q9UEE5 1-414): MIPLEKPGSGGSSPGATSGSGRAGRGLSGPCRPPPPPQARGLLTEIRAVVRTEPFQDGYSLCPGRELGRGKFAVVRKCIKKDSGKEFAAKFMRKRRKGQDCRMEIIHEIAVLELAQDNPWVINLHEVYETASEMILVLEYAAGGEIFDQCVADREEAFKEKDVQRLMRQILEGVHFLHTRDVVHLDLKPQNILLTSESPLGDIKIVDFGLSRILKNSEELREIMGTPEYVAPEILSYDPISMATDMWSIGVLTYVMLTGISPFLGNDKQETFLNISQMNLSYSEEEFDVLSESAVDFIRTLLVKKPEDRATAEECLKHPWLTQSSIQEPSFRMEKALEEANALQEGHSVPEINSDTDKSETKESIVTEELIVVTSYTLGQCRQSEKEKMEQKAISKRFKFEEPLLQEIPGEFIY
Procedure, shortened: (§1)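 P81 filtration radiometric readout; 2 h incubation at room temperature; 0.1% phosphoric acid wash; DMSO negative control; % inhibition, mean of replicate runs.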

MRCKa/CDC42BPA = target: T2, MRCKa/CDC42BPA (Homo sapiens, UniProt Q5VT25)
T2 construct: purchased Reaction Biology Corp
T2 sequence (Q5VT25 whole entry): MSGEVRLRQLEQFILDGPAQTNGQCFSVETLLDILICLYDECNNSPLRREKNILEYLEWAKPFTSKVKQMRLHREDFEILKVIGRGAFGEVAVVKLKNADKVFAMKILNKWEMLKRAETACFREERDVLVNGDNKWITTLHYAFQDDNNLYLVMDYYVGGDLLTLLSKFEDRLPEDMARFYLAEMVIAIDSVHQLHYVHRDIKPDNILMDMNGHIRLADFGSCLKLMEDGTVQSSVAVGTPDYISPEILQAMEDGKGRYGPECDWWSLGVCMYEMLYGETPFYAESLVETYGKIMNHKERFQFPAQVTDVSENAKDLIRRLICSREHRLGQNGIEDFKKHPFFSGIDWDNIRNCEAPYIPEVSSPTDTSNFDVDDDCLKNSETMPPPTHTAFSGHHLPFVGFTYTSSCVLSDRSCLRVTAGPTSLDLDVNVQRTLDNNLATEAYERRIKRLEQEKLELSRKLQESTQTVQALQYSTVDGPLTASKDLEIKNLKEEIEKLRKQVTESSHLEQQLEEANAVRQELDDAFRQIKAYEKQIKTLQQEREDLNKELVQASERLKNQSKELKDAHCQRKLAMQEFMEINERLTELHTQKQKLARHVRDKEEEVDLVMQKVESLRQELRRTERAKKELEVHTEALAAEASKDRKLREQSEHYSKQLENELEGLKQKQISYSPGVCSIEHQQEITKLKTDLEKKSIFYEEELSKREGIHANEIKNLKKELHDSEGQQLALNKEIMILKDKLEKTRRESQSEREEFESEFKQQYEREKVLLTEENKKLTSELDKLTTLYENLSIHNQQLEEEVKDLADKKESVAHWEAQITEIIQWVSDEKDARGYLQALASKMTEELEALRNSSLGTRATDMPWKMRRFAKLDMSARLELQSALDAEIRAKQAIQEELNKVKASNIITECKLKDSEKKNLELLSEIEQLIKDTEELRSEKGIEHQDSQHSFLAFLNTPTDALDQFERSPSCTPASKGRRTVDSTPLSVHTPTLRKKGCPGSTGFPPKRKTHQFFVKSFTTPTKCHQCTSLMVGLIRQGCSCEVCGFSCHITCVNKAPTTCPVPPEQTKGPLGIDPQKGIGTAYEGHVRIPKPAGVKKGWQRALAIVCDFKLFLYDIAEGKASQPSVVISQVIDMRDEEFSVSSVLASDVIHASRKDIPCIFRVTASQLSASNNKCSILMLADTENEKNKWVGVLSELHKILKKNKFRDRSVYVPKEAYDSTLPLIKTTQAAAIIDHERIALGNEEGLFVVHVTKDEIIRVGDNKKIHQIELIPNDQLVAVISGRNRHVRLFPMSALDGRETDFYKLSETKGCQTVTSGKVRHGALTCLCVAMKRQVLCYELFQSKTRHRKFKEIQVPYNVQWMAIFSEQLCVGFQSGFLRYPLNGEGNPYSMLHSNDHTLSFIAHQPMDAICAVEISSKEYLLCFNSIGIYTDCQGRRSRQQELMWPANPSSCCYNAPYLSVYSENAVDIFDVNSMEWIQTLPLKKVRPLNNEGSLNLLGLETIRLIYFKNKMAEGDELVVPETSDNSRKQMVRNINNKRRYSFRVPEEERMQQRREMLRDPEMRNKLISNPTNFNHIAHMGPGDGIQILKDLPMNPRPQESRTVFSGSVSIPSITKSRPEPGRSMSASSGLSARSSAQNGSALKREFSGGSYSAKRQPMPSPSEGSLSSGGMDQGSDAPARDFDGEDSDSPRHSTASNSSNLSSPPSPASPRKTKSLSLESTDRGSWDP
Procedure, shortened: as §1

CSK = target: T3, CSK (Homo sapiens, UniProt P41240)
T3 construct: purchased Reaction Biology Corp
Procedure, shortened: as §1

PAK5 = target: T4, PAK5 (Homo sapiens, UniProt Q9P286)
T4 construct: purchased Reaction Biology Corp
T4 sequence (Q9P286 whole entry): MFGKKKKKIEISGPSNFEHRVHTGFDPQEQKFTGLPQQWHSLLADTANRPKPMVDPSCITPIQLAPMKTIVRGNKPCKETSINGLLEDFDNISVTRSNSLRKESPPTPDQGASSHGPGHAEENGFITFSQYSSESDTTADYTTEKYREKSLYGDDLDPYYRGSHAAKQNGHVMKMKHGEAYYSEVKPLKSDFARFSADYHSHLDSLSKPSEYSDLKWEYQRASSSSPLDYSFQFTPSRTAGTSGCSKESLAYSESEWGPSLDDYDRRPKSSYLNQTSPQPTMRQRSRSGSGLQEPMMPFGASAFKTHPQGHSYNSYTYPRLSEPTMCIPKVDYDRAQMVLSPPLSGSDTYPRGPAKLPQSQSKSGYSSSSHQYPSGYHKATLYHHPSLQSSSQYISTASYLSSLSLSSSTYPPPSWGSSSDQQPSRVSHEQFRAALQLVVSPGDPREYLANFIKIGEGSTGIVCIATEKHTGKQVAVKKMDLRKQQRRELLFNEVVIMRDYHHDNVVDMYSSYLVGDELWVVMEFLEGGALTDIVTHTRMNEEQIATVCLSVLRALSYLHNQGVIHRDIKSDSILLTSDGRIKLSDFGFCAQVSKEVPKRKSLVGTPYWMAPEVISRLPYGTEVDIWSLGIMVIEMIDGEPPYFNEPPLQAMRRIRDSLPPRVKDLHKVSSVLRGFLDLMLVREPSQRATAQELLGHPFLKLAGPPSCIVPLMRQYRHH
Procedure, shortened: as §1

STK33 = target: T5, STK33 (Homo sapiens, UniProt Q9BYT3)
T5 construct: purchased Reaction Biology Corp
T5 sequence (Q9BYT3 whole entry): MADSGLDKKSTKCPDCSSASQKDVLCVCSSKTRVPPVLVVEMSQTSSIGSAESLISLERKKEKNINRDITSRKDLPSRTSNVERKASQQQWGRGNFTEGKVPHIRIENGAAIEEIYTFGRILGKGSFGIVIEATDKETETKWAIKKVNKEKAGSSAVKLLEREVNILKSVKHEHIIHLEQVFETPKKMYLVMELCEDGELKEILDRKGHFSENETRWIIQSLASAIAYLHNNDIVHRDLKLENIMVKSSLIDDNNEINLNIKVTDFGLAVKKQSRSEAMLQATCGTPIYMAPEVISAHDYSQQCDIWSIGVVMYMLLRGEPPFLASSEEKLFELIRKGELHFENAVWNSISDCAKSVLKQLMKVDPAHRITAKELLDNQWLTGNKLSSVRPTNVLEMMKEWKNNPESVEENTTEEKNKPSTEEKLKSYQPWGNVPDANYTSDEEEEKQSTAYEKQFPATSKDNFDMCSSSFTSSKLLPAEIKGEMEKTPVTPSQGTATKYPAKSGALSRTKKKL
Procedure, shortened: as §1

PLK3 = target: T6, PLK3 (Homo sapiens, UniProt Q9H4B4)
T6 construct: purchased Reaction Biology Corp
T6 sequence (Q9H4B4 whole entry): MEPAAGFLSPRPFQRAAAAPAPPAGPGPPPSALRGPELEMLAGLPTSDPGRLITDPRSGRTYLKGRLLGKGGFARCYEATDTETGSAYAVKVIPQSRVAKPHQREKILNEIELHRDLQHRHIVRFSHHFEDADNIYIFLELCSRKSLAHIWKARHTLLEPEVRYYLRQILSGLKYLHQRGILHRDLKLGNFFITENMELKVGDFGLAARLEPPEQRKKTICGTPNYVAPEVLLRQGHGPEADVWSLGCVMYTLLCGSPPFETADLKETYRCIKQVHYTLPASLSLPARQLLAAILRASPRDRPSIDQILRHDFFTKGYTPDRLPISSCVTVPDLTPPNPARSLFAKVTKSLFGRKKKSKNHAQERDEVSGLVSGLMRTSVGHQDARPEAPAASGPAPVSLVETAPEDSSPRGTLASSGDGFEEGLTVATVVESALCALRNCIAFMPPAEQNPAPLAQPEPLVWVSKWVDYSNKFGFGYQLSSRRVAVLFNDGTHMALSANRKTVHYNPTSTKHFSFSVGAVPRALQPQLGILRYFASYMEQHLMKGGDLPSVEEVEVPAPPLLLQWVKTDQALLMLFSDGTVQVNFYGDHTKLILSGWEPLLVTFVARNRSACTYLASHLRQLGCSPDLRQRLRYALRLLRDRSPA
Procedure, shortened: as §1

FER = target: T7, FER (Homo sapiens, UniProt P16591)
T7 construct: purchased Reaction Biology Corp
T7 sequence (P16591 whole entry): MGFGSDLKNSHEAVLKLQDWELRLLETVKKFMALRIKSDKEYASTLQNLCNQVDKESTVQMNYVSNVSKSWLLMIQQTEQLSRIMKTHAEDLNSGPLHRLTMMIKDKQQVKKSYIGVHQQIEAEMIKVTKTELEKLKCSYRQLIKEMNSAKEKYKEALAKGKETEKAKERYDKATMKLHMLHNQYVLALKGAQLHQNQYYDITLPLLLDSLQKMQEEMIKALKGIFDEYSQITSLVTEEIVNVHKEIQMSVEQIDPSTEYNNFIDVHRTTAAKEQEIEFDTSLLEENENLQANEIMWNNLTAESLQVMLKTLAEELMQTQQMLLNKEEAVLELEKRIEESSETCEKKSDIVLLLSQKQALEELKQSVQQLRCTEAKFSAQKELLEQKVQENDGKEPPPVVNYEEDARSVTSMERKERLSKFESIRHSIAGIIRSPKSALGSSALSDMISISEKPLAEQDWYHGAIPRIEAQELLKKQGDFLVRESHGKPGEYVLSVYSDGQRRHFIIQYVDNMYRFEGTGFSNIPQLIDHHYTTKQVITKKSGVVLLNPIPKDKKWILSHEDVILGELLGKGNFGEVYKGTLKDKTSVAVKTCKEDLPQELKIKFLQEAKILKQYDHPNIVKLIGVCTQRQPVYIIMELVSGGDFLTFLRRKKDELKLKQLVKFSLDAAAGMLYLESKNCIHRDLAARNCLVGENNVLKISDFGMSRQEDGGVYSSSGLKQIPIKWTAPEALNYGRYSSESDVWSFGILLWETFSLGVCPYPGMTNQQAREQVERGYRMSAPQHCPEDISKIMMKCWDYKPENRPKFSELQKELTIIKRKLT
Procedure, shortened: as §1

SIK3 = target: T8, SIK3 (Homo sapiens, UniProt Q9Y2K2)
T8 construct: purchased Reaction Biology Corp
Procedure, shortened: as §1

PKAcg = target: T9, PKAcg (Homo sapiens, UniProt P22612)
T9 construct: purchased Reaction Biology Corp
T9 sequence (P22612 whole entry): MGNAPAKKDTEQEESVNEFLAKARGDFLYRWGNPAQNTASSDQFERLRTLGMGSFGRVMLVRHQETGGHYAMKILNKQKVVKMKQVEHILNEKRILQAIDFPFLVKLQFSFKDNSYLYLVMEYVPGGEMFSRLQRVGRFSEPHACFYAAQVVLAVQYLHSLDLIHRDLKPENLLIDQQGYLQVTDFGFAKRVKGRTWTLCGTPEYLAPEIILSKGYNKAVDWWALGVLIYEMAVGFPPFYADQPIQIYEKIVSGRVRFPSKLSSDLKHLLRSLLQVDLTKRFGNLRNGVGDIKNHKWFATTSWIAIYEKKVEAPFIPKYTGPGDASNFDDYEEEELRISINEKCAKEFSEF
Procedure, shortened: as §1

CLK3 = target: T10, CLK3 (Homo sapiens, UniProt P49761)
T10 construct: purchased Reaction Biology Corp
Procedure, shortened: as §1

Aurora A = target: T11, Aurora A (Homo sapiens, UniProt O14965)
T11 construct: purchased Reaction Biology Corp
T11 sequence (O14965 1-403): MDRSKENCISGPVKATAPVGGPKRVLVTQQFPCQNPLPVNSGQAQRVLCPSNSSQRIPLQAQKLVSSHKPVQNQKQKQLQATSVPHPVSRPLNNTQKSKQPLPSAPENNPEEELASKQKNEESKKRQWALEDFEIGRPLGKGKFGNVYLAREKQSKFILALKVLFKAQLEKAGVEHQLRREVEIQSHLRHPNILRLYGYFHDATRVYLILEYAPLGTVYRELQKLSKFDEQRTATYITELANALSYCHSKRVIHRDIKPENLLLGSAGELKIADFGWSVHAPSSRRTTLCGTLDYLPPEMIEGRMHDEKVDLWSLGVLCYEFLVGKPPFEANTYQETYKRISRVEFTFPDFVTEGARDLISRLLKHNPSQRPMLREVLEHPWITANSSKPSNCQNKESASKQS
Procedure, shortened: as §1

PIM1 = target: T12, PIM1 (Homo sapiens, UniProt P11309)
T12 construct: purchased Reaction Biology Corp
Procedure, shortened: as §1

PKCd = target: T13, PKCd (Homo sapiens, UniProt Q05655)
T13 construct: purchased Reaction Biology Corp
Procedure, shortened: as §1

[1] = read-out: % Enzyme Activity (relative to DMSO controls) Run 1
[2] = read-out: % Enzyme Activity (relative to DMSO controls) Run 2

Molecule `C=CC(=O)Nc1cccc(Nc2nc(Nc3ccc(OCCOC)c(F)c3)ncc2F)c1` [Compound 2] has an inhibition at 3 µM (DRAK1/STK17A) of 18.2%, a remaining activity at 3 µM (DRAK1/STK17A; [1]) of 82.9% and a remaining activity at 3 µM (DRAK1/STK17A; [2]) of 80.6%. It also gave an inhibition at 3 µM (MRCKa/CDC42BPA) of -14.3%, a remaining activity at 3 µM (MRCKa/CDC42BPA; [1]) of 114% and a remaining activity at 3 µM (MRCKa/CDC42BPA; [2]) of 115%. It also gave an inhibition at 3 µM (CSK) of 18.2%, a remaining activity at 3 µM (CSK; [1]) of 81.7% and a remaining activity at 3 µM (CSK; [2]) of 81.8%. For the same molecule, the inhibition at 3 µM (PAK5) was -27.4%, the remaining activity at 3 µM (PAK5; [1]) was 123% and the remaining activity at 3 µM (PAK5; [2]) was 132%. The inhibition at 3 µM (STK33) was 48.1%, the remaining activity at 3 µM (STK33; [1]) was 51.2% and the remaining activity at 3 µM (STK33; [2]) was 52.5%. It also gave an inhibition at 3 µM (PLK3) of 1.28%, a remaining activity at 3 µM (PLK3; [1]) of 97% and a remaining activity at 3 µM (PLK3; [2]) of 100%. It also gave an inhibition at 3 µM (FER) of 11.8%, a remaining activity at 3 µM (FER; [1]) of 88.1% and a remaining activity at 3 µM (FER; [2]) of 88.3%. For the same molecule, the inhibition at 3 µM (SIK3) was 7.93%, the remaining activity at 3 µM (SIK3; [1]) was 91.3% and the remaining activity at 3 µM (SIK3; [2]) was 92.8%. For the same molecule, the inhibition at 3 µM (PKAcg) was -27.8%, the remaining activity at 3 µM (PKAcg; [1]) was 128% and the remaining activity at 3 µM (PKAcg; [2]) was 128%. For the same molecule, the inhibition at 3 µM (CLK3) was 6.9%, the remaining activity at 3 µM (CLK3; [1]) was 90.4% and the remaining activity at 3 µM (CLK3; [2]) was 95.8%. The inhibition at 3 µM (Aurora A) was 88.3%, the remaining activity at 3 µM (Aurora A; [1]) was 12.3% and the remaining activity at 3 µM (Aurora A; [2]) was 11%. It also gave an inhibition at 3 µM (PIM1) of -3.82%, a remaining activity at 3 µM (PIM1; [1]) of 104% and a remaining activity at 3 µM (PIM1; [2]) of 104%. It also gave an inhibition at 3 µM (PKCd) of 1.78%, a remaining activity at 3 µM (PKCd; [1]) of 100% and a remaining activity at 3 µM (PKCd; [2]) of 96%.
